Tests used:
HIV-1 = assay: microbe, parasite or virus in culture
Experimental: (A and C) Concentrations of T20 that block viral infection. […] One hour before incubation with the virus, cells were pretreated with T20 or left untreated. At 12 hours, cells were washed extensively and cultured under the same conditions. On day 9, the viral concentration was determined using a p24gag FLAQ assay. The amount of p24gag accumulated in the absence of drugs by each viral clone (A) or by SKY (C) was defined as 100%. (B and D) Effect of T20 on indirect killing. CFSE-labeled cells were co-cultured with cells infected with the indicated viral clones in the presence of 5 μM AZT and the indicated concentrations of T20. After 6 days, indirect killing in the mixed cultures was assessed. The number of viable CFSE-positive CD4 T-cells co-cultured with uninfected cells in the presence of AZT was defined as 100% (not shown). To allow successful initial infection the GIA-SKY mutants were pseudotyped with the VSV-G envelope. NL4-3, WT lab-adapted virus; WEAU 16-8, primary virus; SIM, T20-resistant virus; GIA-SKY, T20-dependent virus; GIA and SKY, single-domain mutant viruses. Representative data from three independent experiments with different donors are shown. See also FIG. 5, below.
HLACs were infected with viruses derived from the indicated HIV proviral clones in the presence of the indicated concentrations of AZT or in the absence of drugs. Six days after infection the amount of p24^gag in the medium was determined by FLAQ assay. The amount of p24^gag in the medium after infection wash (day 0) was defined as 0%. […] Viral incorporation of endogenous A3G was measured by immunoblot analysis of purified NL4-3 and Δvif NL4-3 virions harvested from 1 ml of supernatant from infected HLACs. Doses reflect 1:10 dilutions. […] Resting or activated CFSE-labeled cells were co-cultured with cells infected with WT or Δvif NL4-3 in the presence or absence of the following drugs, AZT (5 μM), AMD3100 (250 nM), the NNRTIs Efavirenz (100 nM), and Nevirapine (1 μM), or the integration inhibitors Raltegravir (30 μM) and 118-D-24 (60 μM). Data are representative of four independent experiments performed with cells from four different donors. (E) A method to assess indirect killing in HLAC with non-infectious HIV-1 clones. Fresh human tonsil is processed into HLAC and cells are cultured in suspension. At the same time 293T-cells are transfected with 1 μg HIV-1 DNA in a 24-well plate. After 12 hours, 293T-cells are washed and overlayed with 3×10^6 HLAC cells in RPMI in the presence of the indicated drugs. Virus-producing 293T-cells directly interact with target overlaying HLAC cells. After 24 hours, the HLAC suspensions are collected from wells and analyzed by flow cytometry. […] HLAC were cultured with the indicated drugs 3 hours before co-culture with 293T-cells. Percentages are normalized to the number of viable CD4 T-cells in HLAC overlaying non-transfected 293T-cells in the presence of AZT, as depicted by (*). Error bars represent standard error of the mean of three experiments performed using cells from three different HLAC donors.

HLAC CD4 T-cells = assay: Spinoculation of HLAC with HIV-1, CD4 T-cell depletion; type: cell-based, human; details: ≧2 μg p24gag/200 μl, within 12 hours
Experimental: (A) The spinoculation procedure. (B) Flow cytometry of viable CD4 versus CD8-T-cells in HLAC three days after spinoculation in the presence of the indicated drugs. Data represent live-gated cells, based on the forward-scatter versus side-scatter profile of the complete culture. Of note, apoptotic cells were included in the analysis of caspases activity and cytokine expression (FIG. 10E, F). Drugs concentrations: AZT 5 μM; Efavirenz 100 nM; AMD3100 250 nM; T20 10 μg/ml. The data are representative results of six independent experiments with six different donors. […] (C) Highly permissive SupT1 CD4 T leukemic cells were infected with NL4-3 and cultivated for 3 days to allow substantial infection but not syncytia formation. […] After 2.5 days of additional culture, the extent of syncytia formation in each sample was evaluated by light microscopy. […] Results are representative of three independent experiments.
Fresh HLAC cells are cultured overnight in a V-bottom 96-well plate (1×10^6 cells/well) in the presence of drugs and then chilled on ice. […] The cold temperature allows virion attachment but prevents virion fusion. HIV-coated cells are then tightly packed into a pellet by high-speed centrifugation (1200 g) for 2 hours at 4° C. This step presses the virus between cell membranes, exerting a uniform and consistent attachment. […]

[1] = test system: lactate dehydrogenase (LDH) release; assay: LDH release from HIV-1-infected HLACs (pyroptosis); type: cell-based, human; details: caspase inhibitors 50 μM or 100 μM, 3 days, FIG. 16C
Experimental: Caspase-1 activation can lead to a highly inflammatory form of cell death called pyroptosis. To gain insight into how CD4 T cells die, it was determined whether HIV infection in CD4 T cells induce pyroptosis cell death, as measured by lactate dehydrogenase (LDH) release. HLACs were left uninfected or infected with NL4-3 in the presence of no drugs, efavirenz, AMD3100, or caspase inhibitors (50 μM or 100 μM), as indicated in FIG. 16C. After 3 days, the supernatants were assayed for the cytosolic enzyme lactate dehydrogenase (LDH) and the LDH released by dying cells was quantified.

[2] = test system: CD4 T cells in HIV-1 (NL4-3)-infected HLACs; assay: CD4 T-cell death in HIV-1-infected HLACs, viable CD4 T cells by flow cytometry; type: cell-based, human; details: FIG. 15, 4 different donors

Compound: Cc1cn([C@H]2C[C@H](N=[N+]=[N-])[C@@H](CO)O2)c(=O)[nH]c1=O [AZT]
- IC50 (HIV-1; Human immunodeficiency virus 1, in Homo sapiens, read-out: concentration achieving half maximal inhibitory effect): 500 nM
- concentration that blocks viral replication (HIV-1; NL4-3-infected and AZT-sensitive clones): 0.5 µM

Compound: O=C1Nc2ccc(Cl)cc2[C@@](C#CC2CC2)(C(F)(F)F)O1 [efavirenz]
- CD4 T-cell killing after spinoculation with high doses of HIV-1 (HLAC CD4 T-cells): is not prevented
- LDH release from HIV-1 infected cells [1]: LDH was not released
- death of infected CD4 T-cells [2]: inhibit the death of infected CD4 T-cells

Compound: enfuvirtide
- CD4 T-cell killing after spinoculation with high doses of HIV-1 (HLAC CD4 T-cells): prevented CD4 T-cell killing
- concentration at which inhibition of infection begins (HIV-1): > 2 µg/mL
- concentration giving complete inhibition of infection (HIV-1): 0.1 µg/mL
- concentration required for complete inhibition of infection (HIV-1): 10 µg/mL
- inhibition of infection (HIV-1): did not inhibit infection
- replication of T20-dependent mutant GIA-SKY (HIV-1): readily replicated

Compound: c1cc(CN2CCCNCCNCCCNCC2)ccc1CN1CCCNCCNCCCNCC1 [AMD3100]
- LDH release from HIV-1 infected cells [1]: LDH was not released
- death of infected CD4 T-cells [2]: inhibit the death of infected CD4 T-cells

Source: patent US9352010B2, “Treatment of HIV-1 infection and AIDS” (The J. David Gladstone Institutes, priority 2011, dated 2016)
